# Measured values: ChEMBL document CHEMBL1629583, “Establishment of in vitro susceptibility testing methodologies and comparative activities of piperacillin in combination with the penem {beta}-lactamase inhibitor BLI-489” (2009)
# What was measured:
# Format in all cases: functional
# Moraxella catarrhalis = assay: Antimicrobial activity against Moraxella catarrhalis clinical isolate after 18 to 22 hrs by broth microdilution method
# Acinetobacter baumannii = assay: Antimicrobial activity against Acinetobacter baumannii clinical isolate after 18 to 22 hrs by broth microdilution method
# Providencia rettgeri = assay: Antimicrobial activity against Providencia rettgeri clinical isolate after 18 to 22 hrs by broth microdilution method
# Bacteroides fragilis = assay: Antimicrobial activity against Bacteroides fragilis clinical isolate after 18 to 22 hrs by broth microdilution method
# Morganella morganii = assay: Antimicrobial activity against Morganella morganii clinical isolate after 18 to 22 hrs by broth microdilution method
# Acinetobacter johnsonii = assay: Antimicrobial activity against Acinetobacter johnsonii clinical isolate after 18 to 22 hrs by broth microdilution method
# Citrobacter freundii [1] = assay: Antimicrobial activity against Citrobacter freundii clinical isolate after 18 to 22 hrs by broth microdilution method
# Pseudomonas aeruginosa = assay: Antimicrobial activity against Pseudomonas aeruginosa clinical isolate after 18 to 22 hrs by broth microdilution method
# Serratia marcescens [2] = assay: Antimicrobial activity against Serratia marcescens clinical isolate after 18 to 22 hrs by broth microdilution method
# Klebsiella pneumoniae [3] = assay: Antimicrobial activity against Klebsiella pneumoniae clinical isolate after 18 to 22 hrs by broth microdilution method
# Burkholderia cepacia = assay: Antimicrobial activity against Burkholderia cepacia clinical isolate after 18 to 22 hrs by broth microdilution method
# Enterobacter cloacae [4] = assay: Antimicrobial activity against AmpC beta-lactamase-producing Enterobacter cloacae clinical isolate after 18 to 22 hrs by broth microdilution method
# [5] = test system: Haemophilus parainfluenzae; assay: Antimicrobial activity against Haemophilus parainfluenzae clinical isolate after 18 to 22 hrs by broth microdilution method
# [6] = test system: Peptostreptococcus anaerobius; assay: Antimicrobial activity against Peptostreptococcus anaerobius clinical isolate after 18 to 22 hrs by broth microdilution method
# [7] = test system: Stenotrophomonas maltophilia; assay: Antimicrobial activity against Stenotrophomonas maltophilia clinical isolate after 18 to 22 hrs by broth microdilution method
# Acinetobacter lwoffii = assay: Antimicrobial activity against Acinetobacter lwoffii clinical isolate after 18 to 22 hrs by broth microdilution method
# Escherichia coli [8] = assay: Antimicrobial activity against class A extended spectrum beta-lactamase- and class D OXA- producing Escherichia coli clinical isolate after 18 to 22 hrs by broth microdilution method
# [9] = test system: Acinetobacter calcoaceticus; assay: Antimicrobial activity against Acinetobacter calcoaceticus clinical isolate after 18 to 22 hrs by broth microdilution method
# Haemophilus influenzae [10] = assay: Antimicrobial activity against beta-lactamase-negative Haemophilus influenzae clinical isolate after 18 to 22 hrs by broth microdilution method
# Escherichia coli [11] = assay: Antimicrobial activity against class A extended spectrum beta-lactamase- producing Escherichia coli clinical isolate after 18 to 22 hrs by broth microdilution method
# Proteus mirabilis = assay: Antimicrobial activity against Proteus mirabilis clinical isolate after 18 to 22 hrs by broth microdilution method
# Parvimonas micra = assay: Antimicrobial activity against Peptostreptococcus micros clinical isolate after 18 to 22 hrs by broth microdilution method
# Klebsiella pneumoniae [12] = assay: Antimicrobial activity against AmpC- producing Klebsiella pneumoniae clinical isolate after 18 to 22 hrs by broth microdilution method
# Haemophilus influenzae [13] = assay: Antimicrobial activity against beta-lactamase-producing Haemophilus influenzae clinical isolate after 18 to 22 hrs by broth microdilution method
# Klebsiella pneumoniae [14] = assay: Antimicrobial activity against class A extended spectrum beta-lactamase- and class D OXA- producing Klebsiella pneumoniae clinical isolate after 18 to 22 hrs by broth microdilution method
# Proteus vulgaris = assay: Antimicrobial activity against Proteus vulgaris clinical isolate after 18 to 22 hrs by broth microdilution method
# Escherichia coli [15] = assay: Antimicrobial activity against AmpC beta-lactamase-producing Escherichia coli clinical isolate after 18 to 22 hrs by broth microdilution method
# Enterobacter cloacae [16] = assay: Antimicrobial activity against Enterobacter cloacae clinical isolate after 18 to 22 hrs by broth microdilution method
# Klebsiella pneumoniae [17] = assay: Antimicrobial activity against class A extended spectrum beta-lactamase- producing Klebsiella pneumoniae clinical isolate after 18 to 22 hrs by broth microdilution method
# Serratia marcescens [18] = assay: Antimicrobial activity against AmpC beta-lactamase-producing Serratia marcescens clinical isolate after 18 to 22 hrs by broth microdilution method
# Klebsiella aerogenes [19] = assay: Antimicrobial activity against AmpC beta-lactamase-producing Enterobacter aerogenes clinical isolate after 18 to 22 hrs by broth microdilution method
# Klebsiella oxytoca = assay: Antimicrobial activity against Klebsiella oxytoca clinical isolate after 18 to 22 hrs by broth microdilution method
# [20] = test system: Acinetobacter haemolyticus; assay: Antimicrobial activity against Acinetobacter haemolyticus clinical isolate after 18 to 22 hrs by broth microdilution method
# Citrobacter freundii [21] = assay: Antimicrobial activity against AmpC beta-lactamase-producing Citrobacter freundii clinical isolate after 18 to 22 hrs by broth microdilution method
# Clostridium perfringens = assay: Antimicrobial activity against Clostridium perfringens clinical isolate after 18 to 22 hrs by broth microdilution method
# Citrobacter koseri = assay: Antimicrobial activity against Citrobacter koseri clinical isolate after 18 to 22 hrs by broth microdilution method
# Bacteroides uniformis = assay: Antimicrobial activity against Bacteroides uniformis clinical isolate after 18 to 22 hrs by broth microdilution method
# Acinetobacter junii = assay: Antimicrobial activity against Acinetobacter junii clinical isolate after 18 to 22 hrs by broth microdilution method
# [22] = test system: Bacteroides thetaiotaomicron; assay: Antimicrobial activity against Bacteroides thetaiotaomicron clinical isolate after 18 to 22 hrs by broth microdilution method
# Providencia stuartii = assay: Antimicrobial activity against Providencia stuartii clinical isolate after 18 to 22 hrs by broth microdilution method
# Klebsiella aerogenes [23] = assay: Antimicrobial activity against Enterobacter aerogenes clinical isolate after 18 to 22 hrs by broth microdilution method
structure (smiles),measurement,setting,value
C[C@@H](O)[C@H]1C(=O)N2C(C(=O)O)=C(SCCNC=N)C[C@H]12 [IMIPENEM ANHYDROUS],MIC,Moraxella catarrhalis,≤ 0.03 µg/mL
same,MIC50,Moraxella catarrhalis,≤ 0.03 µg/mL
same,MIC90,Moraxella catarrhalis,0.06 µg/mL
same,MIC50,Acinetobacter baumannii,1 µg/mL
same,MIC90,Acinetobacter baumannii,32 µg/mL
same,MIC50,Providencia rettgeri,2 µg/mL
same,MIC90,Providencia rettgeri,2 µg/mL
same,MIC50,Bacteroides fragilis,0.25 µg/mL
same,MIC90,Bacteroides fragilis,0.5 µg/mL
same,MIC50,Morganella morganii,4 µg/mL
same,MIC90,Morganella morganii,4 µg/mL
same,MIC50,Acinetobacter johnsonii,0.06 µg/mL
same,MIC90,Acinetobacter johnsonii,0.5 µg/mL
same,MIC50,Citrobacter freundii [1],1 µg/mL
same,MIC90,Citrobacter freundii [1],1 µg/mL
same,MIC50,Pseudomonas aeruginosa,2 µg/mL
same,MIC90,Pseudomonas aeruginosa,32 µg/mL
same,MIC50,Serratia marcescens [2],1 µg/mL
same,MIC90,Serratia marcescens [2],2 µg/mL
same,MIC50,Klebsiella pneumoniae [3],0.25 µg/mL
same,MIC90,Klebsiella pneumoniae [3],0.5 µg/mL
same,MIC50,Burkholderia cepacia,8 µg/mL
same,MIC90,Burkholderia cepacia,16 µg/mL
same,MIC,Enterobacter cloacae [4],0.5 µg/mL
same,MIC50,Enterobacter cloacae [4],0.5 µg/mL
same,MIC90,Enterobacter cloacae [4],2 µg/mL
same,MIC50,[5],0.25 µg/mL
same,MIC90,[5],0.5 µg/mL
same,MIC50,[6],0.03 µg/mL
same,MIC90,[6],0.06 µg/mL
same,MIC,[7],> 32 µg/mL
same,MIC50,[7],> 32 µg/mL
same,MIC90,[7],> 32 µg/mL
same,MIC50,Acinetobacter lwoffii,0.06 µg/mL
same,MIC90,Acinetobacter lwoffii,0.5 µg/mL
same,MIC,Escherichia coli [8],0.12 µg/mL
same,MIC50,Escherichia coli [8],0.12 µg/mL
same,MIC90,Escherichia coli [8],0.25 µg/mL
same,MIC50,[9],1 µg/mL
same,MIC90,[9],32 µg/mL
same,MIC,Haemophilus influenzae [10],0.12 µg/mL
same,MIC50,Haemophilus influenzae [10],0.05 µg/mL
same,MIC90,Haemophilus influenzae [10],1 µg/mL
same,MIC,Escherichia coli [11],0.12 µg/mL
same,MIC50,Escherichia coli [11],0.12 µg/mL
same,MIC90,Escherichia coli [11],0.5 µg/mL
same,MIC50,Proteus mirabilis,2 µg/mL
same,MIC90,Proteus mirabilis,4 µg/mL
same,MIC50,Parvimonas micra,0.06 µg/mL
same,MIC90,Parvimonas micra,0.12 µg/mL
same,MIC50,Klebsiella pneumoniae [12],1 µg/mL
same,MIC90,Klebsiella pneumoniae [12],16 µg/mL
same,MIC50,Haemophilus influenzae [13],0.5 µg/mL
same,MIC90,Haemophilus influenzae [13],0.5 µg/mL
same,MIC50,Klebsiella pneumoniae [14],0.25 µg/mL
same,MIC90,Klebsiella pneumoniae [14],0.5 µg/mL
same,MIC50,Proteus vulgaris,2 µg/mL
same,MIC90,Proteus vulgaris,4 µg/mL
same,MIC,Escherichia coli [15],0.12 µg/mL
same,MIC50,Escherichia coli [15],0.12 µg/mL
same,MIC90,Escherichia coli [15],0.25 µg/mL
same,MIC50,Enterobacter cloacae [16],0.5 µg/mL
same,MIC90,Enterobacter cloacae [16],1 µg/mL
same,MIC50,Klebsiella pneumoniae [17],0.25 µg/mL
same,MIC90,Klebsiella pneumoniae [17],0.5 µg/mL
same,MIC,Serratia marcescens [18],0.5 µg/mL
same,MIC50,Serratia marcescens [18],0.5 µg/mL
same,MIC90,Serratia marcescens [18],2 µg/mL
same,MIC,Klebsiella aerogenes [19],0.5 µg/mL
same,MIC50,Klebsiella aerogenes [19],0.5 µg/mL
same,MIC90,Klebsiella aerogenes [19],2 µg/mL
same,MIC50,Klebsiella oxytoca,0.25 µg/mL
same,MIC90,Klebsiella oxytoca,0.5 µg/mL
same,MIC50,[20],0.06 µg/mL
same,MIC90,[20],0.5 µg/mL
same,MIC,Citrobacter freundii [21],0.5 µg/mL
same,MIC50,Citrobacter freundii [21],0.5 µg/mL
same,MIC90,Citrobacter freundii [21],2 µg/mL
same,MIC50,Clostridium perfringens,0.06 µg/mL
same,MIC90,Clostridium perfringens,0.06 µg/mL
same,MIC50,Citrobacter koseri,0.12 µg/mL
same,MIC90,Citrobacter koseri,0.12 µg/mL
same,MIC,Bacteroides uniformis,0.12 µg/mL
same,MIC50,Bacteroides uniformis,0.12 µg/mL
same,MIC90,Bacteroides uniformis,0.25 µg/mL
same,MIC50,Acinetobacter junii,0.06 µg/mL
same,MIC90,Acinetobacter junii,0.5 µg/mL
same,MIC,[22],0.25 µg/mL
same,MIC50,[22],0.25 µg/mL
same,MIC90,[22],1 µg/mL
same,MIC50,Providencia stuartii,2 µg/mL
same,MIC90,Providencia stuartii,2 µg/mL
same,MIC50,Klebsiella aerogenes [23],1 µg/mL
same,MIC90,Klebsiella aerogenes [23],2 µg/mL
